From patent US20120244079A1, “TRACEABLE RETINOID ACID FOR IMAGING, DISEASE PREVENTION AND THERAPY” (BAYLOR COLLEGE OF MEDICINE, priority 2009, published 2012)
“Also recorded” adds a separate entry of the source.

Experiments:
[1] = test system: F4 osteosarcoma tumor xenograft; assay: In vivo NIR imaging, side-by-side with free dye; set-up: species or system athymic nude mice; conditions: for clearance from the body, time: following the injection
Experimental: (§1) Four- to six-week-old male athymic nude mice (18-22 g) were housed and fed sterilized pellet chow and provided sterilized water. Animals were maintained in a pathogen-free mouse colony. The facility is accredited by the American Association for Laboratory Animal Care, and all experiments were performed in accordance with the guidelines of the Institutional Animal Care and Use Committee. Tumor cells were harvested near confluence by incubating them with 0.05% trypsin-EDTA. Cells were pelleted by centrifugation at 130×g for five minutes and resuspended in sterile phosphate-buffered saline (PBS). Tumors were induced in animals by subcutaneous injection of approximately one million tumor cells into the hind leg region of the mice. A total of 75 mice were used in this study.
(§2) The NIR-labeled retinoid agent was intraveneously (i.v.) injected into the tumor-bearing mice at a dose of 10 nmol for imaging. The animals were imaged from 1 to 9 days after the injection using an In-Vivo Multispectral System FX, a tandem (SPECT/CT) single photon emission computed tomography (SPECT) and computed tomography (CT) system and imaged with a positron emission tomography (PET) system.
Regions of interest were quantified from the in vitro and in vivo data using ImageJ (National Institutes of Health, USA). Data were analyzed using one-way (analysis of variance) ANOVA or general linear model (GLM). Data comparisons were illustrated in notched box-and-whisker plots. These plots provide the minimum, 25th percentile, median (central line), mean (+), 75th percentile and maximum.
The tumor mass was located in the left hind region of the mouse (FIG. 2A). There was no calcification of the tumor mass (FIG. 2B). […] To eliminate the potential well-established enhanced permeability and retention (EPR) effect of the imaging results, a side-by-side imaging comparison was performed to study and to directly compare the free dye (FIG. 2E to FIG. 2I) and compound 3 (FIG. 2J to FIG. 2M). The same intensity scale was used in this analysis. […] Finally, the merged free dye, RGD and CT images show the only high vasculature signal in the vicinity of the tumor (FIG. 2I). In contrast, the merged compound 3, RGD and CT images show both vasculature and RA (compound 3) signal intensity increases in the tumor region (FIG. 2N, yellow). All of the data were further analyzed at the animal population level.

[2] = test system: human lung cancer (A549) cells; assay: Confocal microscopy cell binding/uptake; type: cell-based; conditions: 100 μm, 60 minutes at 37° C.
Experimental: (§3) The human colon (HT-29), nasal (CCL-30) and lung (A549) cancer cell lines were purchased from the American Type Culture Collection (ATCC, Manassas, Va.). Human osteosarcoma (F5M2, OS-9901, SOSP-S607, F4, CM319) and nasopharyngeal carcinoma cell lines (CNE-2) were generated in-house. The cells were cultured in Dulbecco's Modified Eagle Medium supplemented with high glucose and F12 nutrient (DMEM/F12, Invitrogen, Carlsbad, Calif.) with 10% fetal bovine serum (Hyclone, Logan, Utah) in a humidified incubator maintained at 37° C. with 5% CO2.
(§4) Cells were harvested, and the NIR-labeled retinoid agent or the free dye (100 μm) was added. The mixture was incubated for 60 minutes at 37° C. Cells were washed in PBS. Sytox Green in 95% ethanol was added, and cells were incubated for 15 minutes at 4° C. to fix them and stain their nuclei. Stained cells were then transferred to a slide and mounted for microscopic examination. Images were recorded by an Olympus confocal microscope. The microscope was equipped with an excitation (Ex) light source and emission (Em) filters to detect and separate the labeled retinoids (ex/em 785/810 nm) and cell nuclei (Ex/Em 488/510 nm) signals. Confocal image signals were recorded from one slice of a cell z-stack. Sytox green and NIR-labeled retinoid or NIR dye signals were pseudo-colored green (emission at 510 nm) and red (emission at 810 nm), respectively.
(§5) The uptake of NIR-labeled retinoid agent by human cancer cells was verified by confocal microscopy (FIG. 1A to 1H). […] The nuclear internalization was temperature-dependent (FIG. 1J and FIG. 1K). The signal intensity was stronger in cells incubated at 37° C. (FIG. 1I) than in those incubated at 4° C. (FIG. 1L) or the negative cells incubated at 37° C. (FIG. 1M, FIG. 1N, and FIG. 1O). These differences are statistically significant (FIG. 1P).

[3] = test system: human osteosarcoma F5M2 cells; assay: Confocal microscopy cell binding/uptake; type: cell-based; conditions: 100 μm, 60 minutes at 37° C.
Experimental: as §3, §4, §5

[4] = test system: human osteosarcoma F4 cells; assay: Confocal microscopy cell binding/uptake; type: cell-based; conditions: 100 μm, 60 minutes at 37° C.
Experimental: as §3, §4, §5

[5] = test system: human osteosarcoma OS-9901 cells; assay: Confocal microscopy cell binding/uptake; type: cell-based; conditions: 100 μm, 60 minutes at 37° C.
Experimental: as §3, §4, §5

[6] = test system: human nasopharyngeal cancer (CNE-2) cells; assay: Confocal microscopy cell binding/uptake; type: cell-based; conditions: 100 μm, 60 minutes at 37° C.
Experimental: as §3, §4, §5

[7] = test system: human osteosarcoma SOSP-9607 cells; assay: Confocal microscopy cell binding/uptake; type: cell-based; conditions: 100 μm, 60 minutes at 37° C.
Experimental: as §3, §4, §5

[8] = test system: human colon cancer (HT-29) cells; assay: Confocal microscopy cell binding/uptake; type: cell-based; conditions: 100 μm, 60 minutes at 37° C.
Experimental: as §3, §4, §5

[9] = test system: human colon, lung, nasal cancer, and neuroblastoma xenografts; assay: In vivo NIR imaging of other xenografts; set-up: species or system athymic nude mice; conditions: across all four tumor xenografts
Experimental: as §1, §2
To confirm the findings in other cancer cell types, the RA agent was tested in human colon (FIG. 4A), lung (FIG. 4B), nasal (FIG. 4C) cancer, and neuroblastoma (FIG. 4 D) xenografts. […]

CM319 osteosarcoma cells = assay: Confocal microscopy cell binding/uptake; type: cell-based, human
Experimental: as §3, §4

tumor xenograft = assay: Dose acceleration response (tumor-to-muscle ratio); type: in vivo, mice; conditions: injection dose increased from 0.03 to 0.125 mg, p>0.5270
Experimental: (§6) Tumor-bearing mice were divided into three groups for the dose acceleration study; they were injected with 0.03 mg, 0.06 mg, or 0.125 mg of the NIR-labeled retinoid agent that was equivalent to the non-labeled retinoid, respectively. The tumor-to-muscle ratio was calculated from the imaging data. The systemic toxicity was measured using control mice. The mice were treated with PBS (control), a low dose (0.1 mg/kg/week), or a dosage that was five times lower than that reported in published human clinical trials (0.6 mg/kg/week). The bodyweight was measured every other day, and the percentage gain in bodyweight was used as the toxicity indicator.
(§7) To test for a saturation effect of the target-specific biological agent, three groups of animal were injected with different doses of the retinoid agent. The tumor-to-muscle ratio was used to compare the dose response in the tumor. […] However, the higher dose was associated with a significant decrease in the gain of bodyweight (FIG. 7B).

[10] = Systemic toxicity by bodyweight gain; type: in vivo, mice
Experimental: as §6, §7

[11] = test system: human colon cancer xenograft; assay: Tumor-to-muscle and liver-to-tumor ratios over time; type: in vivo, athymic nude mice; conditions: for signal in the liver versus background/muscle level: 14 days post-injection, single 18.4 μg injection
Experimental: as §1
The NIR-labeled retinoid agent was intraveneously (i.v.) injected into the tumor-bearing mice at a dose of 10 nmol for imaging. […] System FX, a tandem (SPECT/CT) single photon emission computed tomography (SPECT) and computed tomography (CT) system and imaged with a positron emission tomography (PET) system.
[…] […] The imaging agent was initially concentrated in the liver after the injection, but it gradually redistributed from the liver to the tumor over time. […] The maximum TMR (2.7) was reached 6 days post-injection in some animals, after which it started to decrease.

human cancer cells = assay: Confocal microscopy: effect of temperature and signal localisation; type: cell-based
Experimental: as §4, §5
The negative cells also show the minimum signal intensity (FIG. 1M and FIG. 1N).

[12] = 30 mg/day, stage I and II head and neck cancer patients; cited from earlier work

Structure (SMILES): CC1(C)C(=CC=C2CCCC(C=CC3=[N+](CCCCCC(=O)[O-])c4ccc(S(=O)(=O)[O-])cc4C3(C)C)=C2Oc2ccc(S(=O)(=O)[O-])cc2)N(CCCCS(=O)(=O)[O-])c2ccc(S(=O)(=O)[O-])cc21.[Na+].[Na+].[Na+].[Na+] [IRDye800CW, reference compound]
- optical signal in the animal ([1]; after 24 hours): completely undetectable
- signal intensity (TBR), IRDye800CW group vs RA group ([1]; after 24 hours, P<0.0001): significantly lower
- clearance from the body, time [1]: 24 h
- clearance from the body, time ([1]; listed as free dye): ≤ 24 h
- binding to cells (NIR signal, confocal image) [2]: no detectable signal
- binding to cells (NIR signal, confocal image) [3]: no detectable signal
- binding to cells (NIR signal, confocal image) [4]: no detectable signal
- binding to cells (NIR signal, confocal image) [5]: no detectable signal
- binding to cells (NIR signal, confocal image) [6]: no detectable signal
- binding to cells (NIR signal, confocal image) [7]: no detectable signal
- binding to cells (NIR signal, confocal image) [8]: no detectable signal

Structure (SMILES): CC1=C(/C=C/C(C)=C/C=C/C(C)=C/C(=O)NCCCCCCNC(=O)CCCCCN2/C(=C/C=C3\CCCC(/C=C/C4=[N+](CCCCS(=O)(=O)O)c5ccc(S(=O)(=O)O)cc5C4(C)C)=C3Oc3ccc(S(=O)(=O)O)cc3)C(C)(C)c3cc(S(=O)(=O)O)ccc32)C(C)(C)CCC1 [compound 3, RA-HN(CH2)6NH—IRdye 800]
- tumor-to-background ratio [9]: 2.15 to 2.74
- binding to cells (CM319 osteosarcoma cells): strongly binds to all the tested human cancer cell lines except CM319 osteosarcoma cells
- signal intensity in the liver and tumor ([1]; 72 hours post-injection): high signal intensity
- tumor-to-background ratio (TBR) ([1]; 72 hours post-injection, single animal): 2.76
- signal intensity (TBR), IRDye800CW group vs RA group ([1]; within the first 24 hours, P=0.6088): no statistically significant difference
- tumor-to-muscle ratio, dose response (tumor xenograft; listed as imaging agent): no statistically significant difference
- tumor-to-muscle ratio, dose response (tumor xenograft; listed as retinoid agent): no significant difference
- percentage of bodyweight gain vs untreated control and low dose group ([10]; high dose 0.6 mg/kg/week, p=0.0003 vs control, p=0.0001 vs low dose): significantly lower
- percentage of bodyweight gain vs control group ([10]; low dose 0.1 mg/kg/week, p=0.0519): no differences
- liver-to-tumor ratio relative to tumor-to-muscle ratio ([11]; 1 day post-injection): almost twice as high
- signal in the liver versus background/muscle level ([11]; listed as NIR-labeled retinoid agent): still higher than the background level
- signal in the liver versus background/muscle level ([11]; listed as retinoid analog imaging agent): had not returned to the muscle level
- time at which liver-to-tumor and tumor-to-muscle ratios intersected ([11]; post-injection): 3 days
- maximum tumor-to-muscle ratio (TMR) ([11]; single injection 18.4 μg per 25 grams of bodyweight, some animals): 2.7
- binding when incubated at 4° C. (human cancer cells; 4° C.): minimum binding
- signal intensity in cells incubated at 37° C. versus 4° C. or negative cells (human cancer cells; 37° C. vs 4° C., statistically significant, listed as NIR-labeled retinoid agent): stronger; also recorded: higher signal intensity was observed at 37 °C than at 4 °C
- localisation of retinoid signal in cells (human cancer cells; 37° C., confocal, listed as NIR-labeled retinoid agent): not only detected in the cytoplasm but also in the nuclei; also recorded: localizes to the cell membrane and cytoplasm
- binding to cells (NIR signal, confocal image) [2]: bound
- binding to cells (NIR signal, confocal image) [3]: bound
- binding to cells (NIR signal, confocal image) [4]: bound
- binding to cells (NIR signal, confocal image) [5]: bound
- binding to cells (NIR signal, confocal image) [6]: bound
- binding to cells (NIR signal, confocal image) [7]: bound
- binding to cells (NIR signal, confocal image) [8]: bound

Structure (SMILES): CC1=C(/C=C/C(C)=C/C=C/C(C)=C\C(=O)O)C(C)(C)CCC1 [retinoid, isotretinoin]
- patients developing adverse effects [12]: 49.7%
